Assay results taken from US20160095929A1, “PROMOTION OF WOUND HEALING” (Northwestern University, priority 2011, published 2016).
“Also recorded” adds a separate entry of the source.

Legend:
[1] = tested on: p-cofilin; test: p-cofilin immunoblotting in HEKs; type: cell-based, human; details: HEKs treated 72 h, immunoblot
Protocol: HEKs were treated for 72 h with or without Glu, C9, Glu+C9 (A), or with sense DNA-Au NPs or the hybrid GM2/GD2S and GD3S antisense-Au NPs (B). Immunoblotting of cell lysates detected p-cofilin8 ([…]), cofilin and, as a loading control, GAPDH.

[2] = tested on: mouse KCs; test: Mouse KC in vitro wound (scratch) migration assay; type: cell-based; details: WT primary mouse KCs
Protocol: (§1) FIGS. 13A-C show ganglioside depletion reverses glucose-induced inhibition of proliferation and in vitro wound healing. (A) Mouse KCs were cultured in standard medium (8 mM glucose) or medium supplemented with 12 mM glucose treated for 72 h, and then plated at confluence onto collagen I-coated 24-well plates in the presence of mitomycin C to prevent proliferation. Two hours after plating, a scratch was made and migration was monitored photographically during the subsequent 60 h in the continued presence or absence of glucose. (B) Quantification of wound healing shown in (A) by computerized measurements of the unfilled gap. (C) Proliferation of mouse KCs was measured by WST assay in standard or glucose-supplemented medium. In vitro proliferation, migration and motility assays. […] For proliferation assays, KCs were plated onto 96-well (2×10^3 cell/well) or 12-well (2×10^4 cell/well) plates and cell proliferation was assessed daily for 5 d by either WST assay (96-well plate) per manufacturer's instruction (Clontech, Calif.) and manual counting using a hemacytometer (12-well plate). Cell migration was assessed by in vitro wound (scratch) assays as previously described (47). […] Cell migration in complete CnT-07 medium in the presence of 4 μg/mL mitomycin was recorded photographically every 3-4 h for 60 h under an inverted phase-contrast microscope (Nikon). […]

[3] = tested on: mouse KCs; test: Mouse KC proliferation (WST assay); type: cell-based; details: WT primary mouse KCs
Protocol: as §1

[4] = tested on: α5 integrin; details: on fibronectin (FN); cited from earlier work
[5] = tested on: IR; test: IR phosphorylation / signaling immunoblot in HEKs; type: cell-based, human; details: HEKs 72-96 h; 100 pM EtDOP4, 100 pM TNF-α, GM3 50 μM; insulin 5 μg/ml
Protocol: Cells were starved of growth factors overnight (with treatment continued), then treated for 5-60 mins (15 mins shown) with or without insulin 5 μg/ml. Cells lysates were immunoprecipitated with anti-IR polyclonal antibody and blotted with monoclonal anti-IR, PY-20, or as a loading control, actin. Membrane lysates were immunoprecipitated with IR and immunoblotted with anti-IR (top), PY-20 (second row), anti-IRS-1 (3rd row in B), or to control for loading, actin (bottom). […] Expression of IR was not affected.

[6] = tested on: ceramides; test: Ceramide detection with anti-C2 Cer antibody (TLC immunostaining, ELISA) in HEKs; type: cell-based, human; details: TLC immunostaining and ELISA
[7] = tested on: HEKs; test: HEK scratch migration assay; type: cell-based, human; details: mitomycin C, with or without glucose
Protocol: (§2) A. KO and WT mouse KCs, grown in CNT07 medium, were treated with and without 12 mM glucose (Glu) for 72 h, and then plated into 96-well plates. Proliferation was measured by WST assay (Clontech) in the continued presence or absence of Glu. B. Mouse KCs were treated as above, then plated at confluence into Col I-coated 24-well plates in the presence of mitomycin C. Two hours after plating, a scratch was made and migration monitored. Migration was decreased by Glu, but was faster in the KO cells treated with Glu than with vehicle. […] A. HEKs were treated as described in FIG. 7 for mouse KCs and proliferation was measured. […] B. HEKs were treated and scratch assays performed as in FIG. 7. […] C. HEKs were treated with Glu and/or C9, but starved during the last 18 h. Cells were plated on the top of Col I-coated Boyden inserts in supplement-free medium, while the lower level was filled with the same medium with and without insulin (5 μg/ml) or IGF-1 (100 ng/ml) (Haase et al. J Cell Sci 2003; 116:3227-38.; herein incorporated by reference in its entirety). After 18 h, HEKs on the bottom surface were stained and counted. […] D-G. After their incubation in Glu and/or C9, HEKs were plated onto Col I-coated glass dishes and, 2 h later, single cells were imaged every 2 mins over a 2 h period using a Biostation phase contrast microscope (Nikon). […]

[8] = tested on: GM3; test: GM3 expression in HEKs (flow cytometry / immunofluorescence with anti-GM3 antibody); type: cell-based, human; details: for GM3 expression (in words): GCS inhibitor, M154 medium and glucose-supplemented medium
Protocol: A. HEKs were treated for 96 h with 0-100 pM TNF-α in complete […] medium and GM3S expression determined by qPCR. B. GM3 was quantified by flow cytometry with anti-GM3 antibody after 0-100 pM TNF-α for 96 h. C, D. HEKs were treated with 12 mM supplemental glucose (C) or in […] medium alone (D) for 72 h and GM3 was detected with anti-GM3 antibody by immunofluorescence. […] Changes in GM3 expression by immunofluorescence with anti-GM3 antibody show efficacy of siRNA- and DNA-Au NPs with 60-72 h incubation. […] C. […] A, B=routine immunofluorescence; C, D and inset of D=confocal microscopy. Bar=14 μm.

[9] = tested on: HEKs; test: HEK proliferation (WST assay); type: cell-based, human; details: with or without 12 mM glucose, up to 5 days
Protocol: as §2

[10] = tested on: globotriaosylceramide; details: patients with Fabry disease; cited from earlier work
[11] = phase II trials for Gaucher disease; cited from earlier work
[12] = molecular target: T1, GCS (Homo sapiens, UniProt Q16739); details: cited from earlier work
T1 sequence (Q16739 1-394): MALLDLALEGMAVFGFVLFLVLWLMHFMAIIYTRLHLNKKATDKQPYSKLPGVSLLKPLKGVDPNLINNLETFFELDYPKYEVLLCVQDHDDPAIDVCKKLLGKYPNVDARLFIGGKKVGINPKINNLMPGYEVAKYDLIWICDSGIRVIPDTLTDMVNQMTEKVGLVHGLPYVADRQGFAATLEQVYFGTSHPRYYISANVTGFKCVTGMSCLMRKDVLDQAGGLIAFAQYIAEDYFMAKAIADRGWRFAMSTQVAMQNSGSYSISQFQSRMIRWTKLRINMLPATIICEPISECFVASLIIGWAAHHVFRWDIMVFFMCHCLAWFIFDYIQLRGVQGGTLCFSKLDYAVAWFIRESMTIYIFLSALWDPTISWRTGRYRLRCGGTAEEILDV

[13] = in animals, relative to P4; cited from earlier work
[14] = tested on: IGF-1R; test: IGF-1R phosphorylation immunoblot in HEKs; type: cell-based, human; details: HEKs 72 h, with or without Glu; IGF-1 100 ng/ml or insulin 5 μg/ml
[15] = tested on: HEKs; test: HEK single live cell imaging (Biostation); type: cell-based, human; details: Glu-treated HEKs
Protocol: (§3) A. HEKs were treated as described in FIG. 7 for mouse KCs and proliferation was measured. […] B. HEKs were treated and scratch assays performed as in FIG. 7. […] C. HEKs were treated with Glu and/or C9, but starved during the last 18 h. Cells were plated on the top of Col I-coated Boyden inserts in supplement-free medium, while the lower level was filled with the same medium with and without insulin (5 μg/ml) or IGF-1 (100 ng/ml) (Haase et al. J Cell Sci 2003; 116:3227-38.; herein incorporated by reference in its entirety). After 18 h, HEKs on the bottom surface were stained and counted. […] D-G. After their incubation in Glu and/or C9, HEKs were plated onto Col I-coated glass dishes and, 2 h later, single cells were imaged every 2 mins over a 2 h period using a Biostation phase contrast microscope (Nikon). […] Vector maps constructed with 10 representative tracks (G) further show reversal of the impact of Glu with C9 alone (which was approximately the same as with growth factors).

[16] = tested on: HEKs; test: HEK chemotaxis, Col I-coated Boyden inserts; type: cell-based, human; details: supplemental Glu, 18 h, with or without insulin 5 μg/ml or IGF-1 100 ng/ml
Protocol: as §3

## insulin: growth factor, 5 μg/ml
[1]
  phosphorylation of cofilin (in words): decrease p-cofilin

## lactosylceramide [LacCer]
[2]
  migration (in words): slightly decreased
[3]
  proliferation (in words): slightly decreased

## GT1b
[4]
  KC migration: inhibit KC migration specifically on fibronectin (FN)

## CCCCCCCCCCCCCCCC(=O)N[C@H](CN1CCCC1)[C@H](O)c1ccc2c(c1)OCCO2 [EtDOP4, D-threo-EtDO-P4]
[5]
  IR signaling / IR phosphorylation (in words): rescues the suppression of TNF-α of IR phosphorylation
[6]
  ceramide level (in words): neither C9 nor EtDOP4 increase ceramide
[7]
  migration (in words): increases
[8]
  GM3 expression (in words): deplete GM3
[9]
  proliferation (in words): increases
[10]
  accumulation of globotriaosylceramide: decrease the accumulation of globotriaosylceramide

## IGF-1: insulin-like growth factor 1
[1]
  phosphorylation of cofilin (in words): decrease p-cofilin

## eliglustat tartrate
[11]
  toxicity: showed little toxicity

## TNF-α
[5]
  IR signaling / IR phosphorylation (in words): suppresses IR signaling
[8]; 0-100 pM TNF-α for 96 h, flow cytometry
  increase in membrane-based GM3 expression: 10 fold

## CCCCCCCCC(=O)N[C@H](CN1CCCC1)[C@H](O)c1ccc2c(c1)OCCO2.O=C(O)C(O)C(O)C(=O)O [C9]
[12]
  potency at inhibiting GCS relative to P4: somewhat less potent
[6]
  ceramide level (in words): does not increase ceramides; also recorded: neither C9 nor EtDOP4 increase ceramide
[7]
  migration (in words): even faster in the HEKs treated with C9+Glu than in vehicle-treated HEKs; also recorded: increases
[13]
  metabolic and tolerability profile: better metabolic and tolerability profile
[8]; 1 μM C9 for 72 h, flow cytometry
  reduction in GM3 expression: 93%
[8]
  GM3 expression (in words): prevents GM3 expression; also recorded: deplete GM3
[14]
  IGF-1R phosphorylation (in words): phosphorylates IGF-1R, including in the presence of supplemental glucose; also recorded: reverses the glucose-induced suppression of IGF-1R activation
[9]
  proliferation (in words): greatest in cells treated with Glu and C9; also recorded: increases
[15]; at 2 h
  net displacement (reflecting persistence): significantly increased
  total distance (reflecting velocity): significantly increased
[15]; imaged over 2 h
  cell polarity (in words): increased cell polarity
[16]
  chemotaxis (in words): increased chemotaxis of HEKs exposed to supplemental Glu
[1]
  phosphorylation of cofilin (in words): decrease p-cofilin
